Common to all, as to assay: Inorganic phosphate detection assay for phosphatase inhibition
Format in all cases: biochemical

The target in one assay is T1, hamster INPP5K (Cricetulus griseus, UniProt G3HTF6).
T1 construct: hamster INPP5K (aa 1–453, UniProt ID: G3HTF6); FLAG (N); made in house; host or cells: Expi293 cells (pcDNA3.4, transient)
T1 sequence (G3HTF6 1-451): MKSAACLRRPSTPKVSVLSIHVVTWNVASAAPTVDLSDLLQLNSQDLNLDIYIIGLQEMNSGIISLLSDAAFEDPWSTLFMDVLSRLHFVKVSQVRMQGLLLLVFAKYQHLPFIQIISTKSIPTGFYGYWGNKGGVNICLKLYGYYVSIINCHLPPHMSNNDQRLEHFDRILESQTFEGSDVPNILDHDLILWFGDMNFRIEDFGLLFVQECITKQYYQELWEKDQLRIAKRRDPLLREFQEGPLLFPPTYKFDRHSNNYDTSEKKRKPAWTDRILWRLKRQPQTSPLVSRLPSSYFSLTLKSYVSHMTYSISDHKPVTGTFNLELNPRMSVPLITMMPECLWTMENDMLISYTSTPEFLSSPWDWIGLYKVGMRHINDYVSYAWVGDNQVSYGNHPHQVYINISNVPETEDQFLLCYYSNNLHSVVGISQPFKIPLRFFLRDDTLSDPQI
The following applies: 20 µM diC8-PI(3,4,5)P3, 20 min. An excerpt: (§1) The protein purification is described in detail elsewhere. Briefly, full-length human INPP5K (amino acids 1–448, UniProt ID: Q9BT40), rat INPP5K (aa 1–446, UniProt ID: Q9R0B6), mouse INPP5K (aa 1–468, UniProt ID: Q8C5L6), hamster INPP5K (aa 1–453, UniProt ID: G3HTF6), guinea pig INPP5K (aa 1–473, UniProt ID: H0V8T7) containing an N-terminal FLAG-tag, full-length human SHIP2 (aa 1–1 258) containing a C-terminal FLAG-tag, and full-length human PIPP (amino acids 1–1 006) containing an N-terminal His8-tag were all cloned into the pcDNA3.4 expression vector and transiently expressed in Expi293 cells (Thermo Fisher Scientific). The PH domain of human TAPP1 (amino acids 180–404) containing an N-terminal GST-tag was expressed in a pGEX6P1 expression vector (GE Healthcare) in E. coli strain BL21 ((Merck KGaA, Darmstadt, Germany)), following IPTG induction at 37 °C for 5 h. All the FLAG-tagged INPP5Ks and hSHIP2 were purified using affinity columns containing DDDDK-tagged protein purification gel (MBL, Medical & Biological Laboratories Co., Ltd., Tokyo, Japan), followed by size-exclusion chromatography with Superdex 200 columns (GE Healthcare). His8-tagged hPIPP was purified using Ni–NTA Superflow (Qiagen) and Superdex 200 columns. The GST-tagged hTAPP1 domain was purified using a Glutathione Sepharose 4B (GE Healthcare) and Superdex 200 columns. The purity of the protein obtained was evaluated using SDS-PAGE.
(§2) The release of inorganic phosphate was measured using a PiPer Phosphate Assay Kit (Thermo Fisher Scientific), according to the manufacturer’s instructions, but with some modifications. Enzyme reactions were performed in a final volume of 10 µL per well in a 384-well nonbinding black plates (Greiner Bio-One International, GmbH, Kremsmünster, Austria). The reaction mixtures containing 20 µM diC8-PI(3,4,5)P₃ and each enzyme (human INPP5K, mouse INPP5K, rat INPP5K, hamster INPP5K, guinea pig INPP5K, human SHIP2, or human PIPP) in reaction buffer (50 mM Tris–HCl pH 7.0, 150 mM NaCl, 7.5 mM MgCl₂, 0.03% Igepal CA-630, 0.03% gelatin), with or without various concentrations of inhibitor, were incubated for 20 min at room temperature. The reactions were then stopped and detection reactions were initiated by adding 5 µL of detection mix 1 (60 mM EDTA, 12 U/mL maltose phosphorylase, and 0.6 mM maltose in 100 mM Tris–HCl pH 8.0). After incubation for 60 min at room temperature, 5 µL of detection mix 2 (8 U/mL glucose oxidase, 0.8 U/mL HRP, and 100 µM Amplex Red in 100 mM Tris–HCl pH 8.0) was added, and the mixture was incubated for a further 30 min at room temperature in the dark. The fluorescence generated was measured using an Envision plate reader at 531/590 nm (excitation/emission), and the percentage inhibition was calculated as described above.

In another assay the target is T2, human INPP5K (Homo sapiens, UniProt Q9BT40).
T2 construct: full-length human INPP5K (amino acids 1–448, UniProt ID: Q9BT40); FLAG (N); made in house; host or cells: Expi293 cells (pcDNA3.4, transient)
T2 sequence (Q9BT40 1-448): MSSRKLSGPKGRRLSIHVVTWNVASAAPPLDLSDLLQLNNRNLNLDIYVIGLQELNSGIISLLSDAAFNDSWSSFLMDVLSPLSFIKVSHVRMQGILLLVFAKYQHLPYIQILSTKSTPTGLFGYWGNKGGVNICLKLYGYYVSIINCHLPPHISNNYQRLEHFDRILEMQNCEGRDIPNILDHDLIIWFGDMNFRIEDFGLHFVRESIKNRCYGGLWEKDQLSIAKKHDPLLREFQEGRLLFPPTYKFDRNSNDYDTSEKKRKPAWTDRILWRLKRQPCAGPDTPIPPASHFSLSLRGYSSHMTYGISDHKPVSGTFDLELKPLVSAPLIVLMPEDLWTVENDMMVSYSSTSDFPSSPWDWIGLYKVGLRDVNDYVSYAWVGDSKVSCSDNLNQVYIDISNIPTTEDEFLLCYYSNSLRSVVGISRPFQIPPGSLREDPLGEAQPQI
Description: as §1, §2

In the next assay the target is T3, mouse INPP5K (Mus musculus, UniProt Q8C5L6).
T3 construct: mouse INPP5K (aa 1–468, UniProt ID: Q8C5L6); FLAG (N); made in house; host or cells: Expi293 cells (pcDNA3.4, transient)
T3 sequence (Q8C5L6 1-468): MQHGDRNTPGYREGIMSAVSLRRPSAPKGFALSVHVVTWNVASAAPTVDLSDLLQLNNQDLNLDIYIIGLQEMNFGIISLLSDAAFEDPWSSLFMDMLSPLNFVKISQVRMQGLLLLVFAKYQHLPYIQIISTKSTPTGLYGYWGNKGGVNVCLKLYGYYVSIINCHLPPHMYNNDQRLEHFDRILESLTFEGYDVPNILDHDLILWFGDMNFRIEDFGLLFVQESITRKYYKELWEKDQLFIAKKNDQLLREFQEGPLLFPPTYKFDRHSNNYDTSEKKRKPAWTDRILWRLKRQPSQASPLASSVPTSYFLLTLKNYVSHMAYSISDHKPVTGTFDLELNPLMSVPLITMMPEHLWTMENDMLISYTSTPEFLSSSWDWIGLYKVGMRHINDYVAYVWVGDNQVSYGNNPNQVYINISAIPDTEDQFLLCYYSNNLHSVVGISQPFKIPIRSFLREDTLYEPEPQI
Description: as §1, §2

Where [1] appears, read: inorganic phosphate detection assay, 20 µM diC8-PI(3,4,5)P3, 20 min.

For orientation: IC50 means the point on the concentration scale where inhibition reaches its midpoint.

SMILES strings stand for the structures. Entries after “also recorded” stand apart in the source; their conditions may differ.

For `CC(C)c1sc(NC(=O)c2ccccc2)c(C(=O)O)c1-c1ccccc1` [CPD-1], the half-inhibitory concentration (IC50) is 8.2 µM at hamster INPP5K, 2.9 µM against human INPP5K (setting [1]) and greater than 100 µM on mouse INPP5K (setting [1]). Further, the “mode of inhibition of human INPP5K” value on human INPP5K (result in words) is on record as “noncompetitive inhibition; also recorded: noncompetitive inhibitor”. Further, the “inhibition of mouse INPP5K (in words)” value at mouse INPP5K (result in words) was “no inhibition; also recorded: inactive”.

The values above are taken from PMC13047053, “Crystal structure of human INPP5K with an allosteric inhibitor reveals the structural basis for species specific potency” (Scientific Reports, 2026).
